These results are taken from ChEMBL document CHEMBL2057129, “Evaluation of synthetic FK506 analogues as ligands for the FK506-binding proteins 51 and 52” (J Med Chem, 2012).

pIC50: −log10 of the molar value. A value given as a limit tells only on which side of the number the result lay.

For assay [1], the target named is Peptidyl-prolyl cis-trans isomerase FKBP1A (Homo sapiens, UniProt P62942). Nature of the assay: Binding affinity to FKBP12 by fluorescence polarization assay. For orientation: Fluorescence polarisation rises when a labelled molecule tumbles more slowly, as on binding a larger partner.
Assay [2] addresses T1, Peptidyl-prolyl cis-trans isomerase FKBP5 (Homo sapiens, UniProt Q13451).
T1 sequence (Q13451 whole entry): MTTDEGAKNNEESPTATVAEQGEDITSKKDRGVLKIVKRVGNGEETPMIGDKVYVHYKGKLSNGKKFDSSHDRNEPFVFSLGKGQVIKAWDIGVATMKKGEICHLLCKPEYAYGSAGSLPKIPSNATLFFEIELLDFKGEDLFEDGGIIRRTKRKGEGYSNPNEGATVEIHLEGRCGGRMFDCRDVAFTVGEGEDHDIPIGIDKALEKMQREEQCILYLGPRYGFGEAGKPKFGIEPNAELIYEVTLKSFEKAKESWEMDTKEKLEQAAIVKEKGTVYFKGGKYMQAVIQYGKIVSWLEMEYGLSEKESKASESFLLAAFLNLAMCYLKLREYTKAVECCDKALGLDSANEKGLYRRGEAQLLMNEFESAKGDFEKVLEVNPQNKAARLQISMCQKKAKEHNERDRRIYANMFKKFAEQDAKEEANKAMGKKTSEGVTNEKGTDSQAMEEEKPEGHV
Nature of the assay: Binding affinity to FKBP51 FK1 domain by fluorescence polarization assay.

In assay [3] the target is T2, Peptidyl-prolyl cis-trans isomerase FKBP4 (Homo sapiens, UniProt Q02790).
T2 sequence (Q02790 whole entry): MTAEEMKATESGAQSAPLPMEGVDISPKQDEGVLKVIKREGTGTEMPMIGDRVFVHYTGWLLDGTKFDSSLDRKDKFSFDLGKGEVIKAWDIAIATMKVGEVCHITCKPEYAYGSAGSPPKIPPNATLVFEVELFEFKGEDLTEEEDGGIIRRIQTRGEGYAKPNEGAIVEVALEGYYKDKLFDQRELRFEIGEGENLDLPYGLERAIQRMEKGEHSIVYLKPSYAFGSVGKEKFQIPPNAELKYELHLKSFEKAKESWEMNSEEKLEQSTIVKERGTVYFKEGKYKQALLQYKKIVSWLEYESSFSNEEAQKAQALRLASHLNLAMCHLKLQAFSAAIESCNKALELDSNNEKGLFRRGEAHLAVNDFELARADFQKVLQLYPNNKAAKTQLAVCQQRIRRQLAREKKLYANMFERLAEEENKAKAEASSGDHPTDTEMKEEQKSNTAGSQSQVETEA
Nature of the assay: Binding affinity to FKBP52 FK1 domain by fluorescence polarization assay.

Sequence of Peptidyl-prolyl cis-trans isomerase FKBP1A (P62942 whole entry): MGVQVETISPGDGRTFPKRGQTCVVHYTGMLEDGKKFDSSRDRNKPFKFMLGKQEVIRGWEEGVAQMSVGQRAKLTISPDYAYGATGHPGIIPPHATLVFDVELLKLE

For orientation: pIC50 means the IC50 on a negative log10 scale, so that one unit is a factor of ten. Compound `CCC(C)(C)C(=O)C(=O)N1CC=CC[C@H]1C(=O)O[C@H](CCc1ccc(OC)c(OC)c1)c1cccc(OCC(=O)O)c1` gave a pIC50 in assay [1] of 6.26.
For the compound `COc1cc(C(=O)C(=O)N2CCCC[C@H]2C(=O)OC(CCCc2cccnc2)CCCc2cccnc2)cc(OC)c1OC` [BIRICODAR], the results for the pIC50 in assay [1], in assay [2] and in assay [3] were 7.77, 5.07 and 5.13, respectively.
For `COc1ccc(CCOC(=O)[C@@H]2CCCCN2C(=O)C(=O)[C@]2(O)CCCC[C@H]2C)cc1OC` (mixture of isomers), in that order: 5.66, less than 4.00 and less than 4.00.
Taken in the same sequence, the figures for `COc1cc(C(=O)C(=O)N(C)[C@@H](Cc2ccc(Cl)cc2)C(=O)N(Cc2ccccc2)C(CCc2ccncc2)CCc2ccncc2)cc(OC)c1OC` [TIMCODAR] were less than 4.00, less than 4.00 and less than 4.00.
Taken in the same sequence, the figures for `CCC(C)(C)C(=O)C(=O)N1CCCC[C@H]1C(=O)OCCCc1cccnc1` were 5.68, less than 3.82 and less than 3.82.
Regarding `CCC(C)(C)C(=O)C(=O)N1CCCC[C@H]1C(=O)O[C@H](CCc1ccc(OC)c(OC)c1)c1cccc(N)c1`, the pIC50 is 5.42 in assay [2] and 5.97 in assay [3].
As for `CCC(C)(C)C(=O)C(=O)N1CCC[C@H]1C(=O)O[C@H](CCc1ccc(OC)c(OC)c1)c1cccc(OCCN2CCOCC2)c1`, the pIC50 is 5.98 in assay [1], 4.81 in assay [2] and 5.26 in assay [3].
`COc1ccc(CC[C@@H](OC(=O)[C@@H]2CCCCN2C(=O)C(=O)[C@]2(O)CCCC[C@H]2C)c2cccc(OCC(=O)O)c2)cc1OC` (mixture of isomers): the pIC50 in assay [1] is 7.22.
The same measure, in the same setting: the same measure for `CC[C@H]1CCCC[C@@]1(O)C(=O)C(=O)N1CCCC[C@H]1C(=O)O[C@H](CCc1ccc(OC)c(OC)c1)c1cccc(OCC(=O)O)c1` (mixture of isomers): 6.24.
`CC[C@@H]1CCCC[C@@]1(O)C(=O)C(=O)N1CCCC[C@H]1C(=O)OCCOc1ccc(OC)c(OC)c1` (mixture of isomers): the figures for the pIC50 in assay [1], in assay [2] and in assay [3] were 5.56, less than 4.00 and less than 4.00, respectively.
In assay [1], `COc1ccc(CC[C@@H](OC(=O)[C@@H]2CCCCN2C(=O)C(=O)[C@@]2(O)CCCC[C@H]2C)c2cccc(OCC(=O)O)c2)cc1OC` showed a pIC50 of 7.22.
`COc1ccc(OCCOC(=O)[C@@H]2CCCCN2C(=O)C(=O)[C@]2(O)CCCC[C@H]2C)cc1OC` (mixture of isomers): the pIC50 in assay [1] was 6.51; in assay [2] it was 4.53; in assay [3] it was 4.93.
As for `CCC(C)(C)C(=O)C(=O)N1CCSC[C@H]1C(=O)O[C@H](CCc1ccc(OC)c(OC)c1)c1cccc(OCC(=O)O)c1`, the pIC50 in assay [1] was 5.89; in assay [2], less than 4.00; in assay [3] it was less than 4.00.
`CC[C@@H]1CCCC[C@@]1(O)C(=O)C(=O)N1CCCC[C@H]1C(=O)O[C@H](CCc1ccc(OC)c(OC)c1)c1cccc(OCC(=O)O)c1`: in assay [1], the pIC50 was 6.89.
The same measure, in the same setting: the same measure for `COc1ccc(CC[C@@H](OC(=O)[C@@H]2CCCCN2C(=O)C(=O)[C@]2(O)CCCC[C@H]2C)c2cccc(OCCN3CCOCC3)c2)cc1OC` (mixture of isomers): 7.22.
On to `CCC(C)(C)C(=O)C(=O)N1CCCC[C@H]1C(=O)NC(CCc1ccc(OC)c(OC)c1)c1cccc(OCC(=O)O)c1` (mixture of isomers), for which the pIC50 in assay [1] is 5.47; in assay [2], less than 4.00; in assay [3] it was less than 4.00.
In turn, `CC[C@H]1CCCC[C@]1(O)C(=O)C(=O)N1CCCC[C@H]1C(=O)O[C@H](CCc1ccc(OC)c(OC)c1)c1cccc(OCC(=O)O)c1` gave a pIC50 in assay [1] of 6.46.
For `CCC(C)(C)C(=O)C(=O)N1CCCC[C@H]1C(=O)OC`, the values for the pIC50 in assay [1], in assay [2] and in assay [3] were 4.77, less than 4.00 and less than 4.00, respectively.
Regarding `COc1ccc(CC[C@@H](OC(=O)[C@@H]2CCCCN2C(=O)C(=O)[C@]2(O)CCCC[C@@H]2C)c2cccc(OCC(=O)O)c2)cc1OC` (mixture of isomers), the pIC50 in assay [1] was 7.22.
Same read-out and setting: the same measure for `COc1ccc(CC[C@@H](OC(=O)[C@@H]2CCCCN2C(=O)C(=O)[C@]2(O)CCCC[C@@H]2C)c2cccc(OCC(=O)O)c2)cc1OC`: 7.30.
Still for that read-out and setting: with `CC[C@@H]1CCCC[C@@]1(O)C(=O)C(=O)N1CCCC[C@H]1C(=O)O[C@H](CCc1ccc(OC)c(OC)c1)c1cccc(OCCN2CCOCC2)c1` (mixture of isomers) the figure was 6.33.
On to `CCC(C)(C)C(=O)C(=O)N1CCC[C@H]1C(=O)OCCCc1cccnc1` [GPI-1046], for which the negative logarithm of the IC50 (pIC50) in assay [1] is 5.91; in assay [2], less than 4.00; in assay [3] it was less than 4.00.
Consider `CCC(C)(C)C(=O)C(=O)N1CCCC[C@H]1C(=O)O[C@H](CCc1ccc(OC)c(OC)c1)c1cccc(OCC(=O)O)c1`, for which the values for the pIC50 in assay [1] and in assay [3] were 6.77 and 4.98, respectively.
`COc1ccc(CC[C@@H](OC(=O)[C@@H]2CCCCN2C(=O)C(=O)[C@]2(O)CCCC[C@H]2CO)c2cccc(OCC(=O)O)c2)cc1OC`: the pIC50 in assay [1] is 6.29.
As to `CCC(C)(C)C(=O)C(=O)N1CCCC[C@H]1C(=O)OCCOc1ccc(OC)c(OC)c1`, the pIC50 in assay [1] was 5.61; in assay [2], less than 4.00; in assay [3], less than 4.00.
In assay [1], `COc1ccc(CC[C@@H](OC(=O)[C@@H]2CCCCN2C(=O)C(=O)[C@]2(O)CCCC[C@H]2C)c2cccc(OCC(=O)O)c2)cc1OC` gave a pIC50 of 7.22.
In the case of `CCC(C)(C)C(=O)C(=O)N1CCCC[C@H]1C(=O)O[C@H](CCc1ccc(OC)c(OC)c1)c1cccc(OCCN2CCOCC2)c1`, the pIC50 in assay [1] is 7.00; in assay [3], 5.55.
Regarding `CC[C@@H]1CCCC[C@@]1(O)C(=O)C(=O)N1CCCC[C@H]1C(=O)O[C@H](CCc1ccc(OC)c(OC)c1)c1cccc(OCC(=O)O)c1` (mixture of isomers), in assay [1], the pIC50 was 6.49.
Still for that read-out and setting: with `COc1ccc(CC[C@@H](OC(=O)[C@@H]2CCCCN2C(=O)C(=O)c2cc(OC)c(OC)c(OC)c2)c2cccc(OCC(=O)O)c2)cc1OC` the figure was 6.82.
The same measure, in the same setting: the same measure for `COc1ccc(CC[C@@H](OC(=O)[C@@H]2CCCCN2C(=O)C(=O)[C@@]2(O)CCCC[C@@H]2C)c2cccc(OCC(=O)O)c2)cc1OC`: 7.30; for `CCC(C)(C)C(=O)C(=O)N1CCC[C@H]1C(=O)O[C@H](CCc1ccc(OC)c(OC)c1)c1cccc(OCC(=O)O)c1`: 6.10.
